# Assay results from BindingDB's records for patent US20240239813 (Risen (Suzhou) Pharma Tech Co., 2024).
# Target: GTPase KRas [G12D] (Homo sapiens, UniProt P01116, G12D)
# Test: KRAS Binding Assay
# Procedure: The ability of a test compound to bind to KRASG12D was measured by using an HTRF KRASG12D GTP Binding Kit (Cisbio, 63ADK000CB27PEG). […] 5 μL of compound solution was added to each well after serial dilution, followed by addition of 5 μL of GDP (50 nM) solution. After 30 minutes incubation at room temperature, 1×6His Eu cryptate antibody solution and GTP-Red tracer were added to the plate, then incubated for another 30 minutes. The HTRF signal was measured with a VICTOR Nivo multimode plate reader according to the manufacturer's instructions.
# GTPase KRas [G12D], sequence (P01116 whole entry G12D): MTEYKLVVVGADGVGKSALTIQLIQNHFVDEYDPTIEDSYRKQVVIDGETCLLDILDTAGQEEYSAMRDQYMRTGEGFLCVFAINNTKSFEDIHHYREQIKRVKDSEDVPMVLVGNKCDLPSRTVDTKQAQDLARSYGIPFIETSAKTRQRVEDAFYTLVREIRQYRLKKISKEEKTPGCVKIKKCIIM
row,Compound,IC50 [nM]
1,"Oc1cc(-c2ncc3c(N4CCCC5(CCO5)C4)nc(OC[C@@]45CCCN4C[C@H](F)C5)nc3c2F)c2ccccc2c1 (some centres undefined) [US20240239813, Compound 8a]",> 1000
2,"CCc1c(F)ccc2cc(O)cc(-c3ncc4c(N5[C@@H]6CC[C@H]5C[C@@H](O)C6)nc(OC[C@@]56CCCN5C[C@H](F)C6)nc4c3F)c12 [US20240239813, Compound 10]",881
3,"CCc1c(F)ccc2cc(O)cc(-c3ncc4c(N5[C@@H]6CC[C@H]5C[C@H](O)C6)nc(OC[C@@]56CCCN5C[C@H](F)C6)nc4c3F)c12 [US20240239813, Compound 11]",> 1000
4,"CN(C)CC1(COc2nc(N3CCC[C@]4(CCO4)C3)c3cnc(-c4cc(N)ccc4-c4cccs4)c(F)c3n2)CC1 [US20240239813, Compound 17a]",> 1000
5,"CCc1c(F)ccc2cc(OC(=O)C(C)C)cc(-c3ncc4c(N5CCC[C@]6(CCO6)C5)nc(OCC5(CN(C)C)CC5)nc4c3F)c12 [US20240239813, Compound 22a]",> 1000
6,"CCc1c(F)ccc2cc(OC(=O)N(C)C)cc(-c3ncc4c(N5CCC[C@]6(CCO6)C5)nc(OCC5(CN(C)C)CC5)nc4c3F)c12 [US20240239813, Compound 24a]",> 1000
7,"CCc1c(F)ccc2cc(O)cc(-c3ncc4c(N5CCC(O)(CO)CC5)nc(OC[C@@]56CCCN5C[C@H](F)C6)nc4c3F)c12 [US20240239813, Compound 41]",> 1000
8,"CCc1c(F)ccc2cc(O)cc(-c3ncc4c(N5C[C@H](O)[C@@H](O)[C@H](O)[C@H]5CO)nc(OC[C@@]56CCCN5C[C@H](F)C6)nc4c3F)c12 [US20240239813, Compound 51]",> 1000
9,"Cc1ccc2[nH]ncc2c1-c1ncc2c(N3CCCC4(CCO4)C3)nc(OC[C@@]34CCCN3C[C@H](F)C4)nc2c1F (some centres undefined) [US20240239813, Compound 71]",> 1000
